From ChEMBL document CHEMBL4680212, “Discovery of T-1101 tosylate as a first-in-class clinical candidate for Hec1/Nek2 inhibition in cancer therapy” (Eur J Med Chem, 2020)
Active and inactive are the calls of the source. The calls are words filed in the database; no cut-off is given here.

Legend:
HEC1/NEK2 (Homo sapiens) [1] = target: T1, HEC1/NEK2 (Homo sapiens) (UniProt P51955+O14777); assay: Inhibition of Hec1-Nek2 protein-protein interaction in human K562 cells at 100 nM measured after 6 hrs by coimmunoprecipitation assay; assay type: cell-based
HeLa [2] = assay: Induction of apoptosis in human HeLa cells assessed as decrease in cyclin B1 expression at 1 uM measured after 24 hrs by Western blot analysis; assay type: functional, cell-based
HeLa [3] = assay: Induction of apoptosis in human HeLa cells assessed as decrease in cyclin D1 expression at 1 uM measured after 24 hrs by Western blot analysis; assay type: functional, cell-based
NCI/ADR-RES = assay: Antiproliferative activity against human NCI/ADR-RES cells measured after 96 hrs by CellTiter 96 Aqueous One Solution Reagent based assay; assay type: functional, cell-based
HEC1/NEK2 (Homo sapiens) [4] = target: T1, HEC1/NEK2 (Homo sapiens); assay: Inhibition of Hec1-Nek2 protein-protein interaction in human K562 cells assessed as reduction in Nek2 level at 1 uM by Western blot analysis; assay type: cell-based; conditions: TDE = time-dependent effect
HeLa [5] = assay: Induction of apoptosis in human HeLa cells assessed as decrease in Mcl-1 expression at 1 uM measured after 24 hrs by Western blot analysis; assay type: functional, cell-based
HeLa [6] = assay: Induction of apoptosis in human HeLa cells assessed as decrease in cyclin A1 expression at 1 uM measured after 24 hrs by Western blot analysis; assay type: functional, cell-based
HeLa [7] = assay: Induction of apoptosis in human HeLa cells assessed as increase in cleaved PARP protein expression at 1 uM measured after 24 hrs by Western blot analysis; assay type: functional, cell-based
HeLa [8] = assay: Down regulation of Pgp expression in human HeLa cells; assay type: functional, cell-based
HeLa [9] = assay: Induction of apoptosis in human HeLa cells assessed as decrease in XIAP expression at 1 uM measured after 24 hrs by Western blot analysis; assay type: functional, cell-based
MDA-MB-231 [10] = assay: Down regulation of Pgp expression in human MDA-MB-231 cells; assay type: functional, cell-based
HeLa [11] = assay: Induction of apoptosis in human HeLa cells assessed as increase in cleaved caspase 3 protein expression at 1 uM measured after 24 hrs by Western blot analysis; assay type: functional, cell-based
MES-SA/Dx5 = assay: Antiproliferative activity against human MES-SA/Dx5 cells measured after 96 hrs by CellTiter 96 Aqueous One Solution Reagent based assay; assay type: functional, cell-based
MDA-MB-468 = assay: Antiproliferative activity against human MDA-MB-468 cells measured after 96 hrs by CellTiter 96 Aqueous One Solution Reagent based assay; assay type: functional, cell-based; conditions: MDA-MB-468, 96 h
K562 = assay: Antiproliferative activity against human K562 cells measured after 96 hrs by CellTiter 96 Aqueous One Solution Reagent based assay; assay type: functional, cell-based; conditions: K562, 96 h
[12] = AUC in CD-1 mouse at 10 mg/kg, po administered as single dose via gavage by LC-MS/MS analysis; assay type: ADME, organism-based; design: dose 10 mg/kg; conditions: in vivo
HeLa [13] = assay: Antiproliferative activity against human HeLa cells measured after 96 hrs by CellTiter 96 Aqueous One Solution Reagent based assay; assay type: functional, cell-based
MDA-MB-231 [14] = assay: Antiproliferative activity against human MDA-MB-231 cells measured after 96 hrs by CellTiter 96 Aqueous One Solution Reagent based assay; assay type: functional, cell-based; conditions: MDA-MB-231, 96 h

T1 sequence (O14777 whole entry, looked up): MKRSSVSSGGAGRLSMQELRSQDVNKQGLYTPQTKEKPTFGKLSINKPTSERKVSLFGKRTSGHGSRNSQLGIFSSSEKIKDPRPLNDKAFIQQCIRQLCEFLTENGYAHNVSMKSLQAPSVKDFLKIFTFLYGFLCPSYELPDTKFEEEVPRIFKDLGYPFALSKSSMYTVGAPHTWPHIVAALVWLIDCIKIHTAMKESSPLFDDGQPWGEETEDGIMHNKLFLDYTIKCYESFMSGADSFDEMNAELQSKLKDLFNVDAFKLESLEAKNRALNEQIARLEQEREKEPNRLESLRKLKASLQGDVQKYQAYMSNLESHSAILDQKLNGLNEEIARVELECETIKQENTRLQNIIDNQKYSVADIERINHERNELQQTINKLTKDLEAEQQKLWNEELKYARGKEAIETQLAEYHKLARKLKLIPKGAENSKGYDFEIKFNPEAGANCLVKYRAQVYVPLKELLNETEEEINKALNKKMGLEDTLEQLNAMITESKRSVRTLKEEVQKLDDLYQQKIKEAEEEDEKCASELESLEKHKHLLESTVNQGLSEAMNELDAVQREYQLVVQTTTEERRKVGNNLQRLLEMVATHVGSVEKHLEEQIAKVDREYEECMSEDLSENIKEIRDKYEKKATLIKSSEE
T1 sequence (P51955 whole entry, looked up): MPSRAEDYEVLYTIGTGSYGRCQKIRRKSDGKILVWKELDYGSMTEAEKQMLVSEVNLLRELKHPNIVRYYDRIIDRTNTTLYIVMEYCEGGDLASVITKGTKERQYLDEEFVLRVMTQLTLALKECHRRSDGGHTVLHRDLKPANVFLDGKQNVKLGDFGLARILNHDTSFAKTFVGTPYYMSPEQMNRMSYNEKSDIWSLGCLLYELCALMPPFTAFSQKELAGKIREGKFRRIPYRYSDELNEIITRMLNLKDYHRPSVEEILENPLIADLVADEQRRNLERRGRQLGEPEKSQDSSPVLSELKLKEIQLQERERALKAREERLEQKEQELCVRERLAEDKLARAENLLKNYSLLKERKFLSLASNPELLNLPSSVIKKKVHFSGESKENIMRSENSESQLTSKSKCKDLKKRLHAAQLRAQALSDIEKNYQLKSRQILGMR

For `COCCOc1cnc(Sc2cc(C)c(-c3csc(NC(=O)c4ccncc4)n3)c(C)c2)cn1`, the inhibition (HEC1/NEK2 (Homo sapiens) [1]) was “Active”, the Activity (HeLa [2]) was “Active” and the Activity (HeLa [3]) was “Active”. For the same compound, the Activity (NCI/ADR-RES) was “Active”, the Activity (HEC1/NEK2 (Homo sapiens) [4]) was “Tde” and the Activity (HeLa [5]) was “Active”. For the same compound, the Activity (HeLa [6]) was “Active”, the Activity (HeLa [7]) was “Active” and the Activity (HeLa [8]) was “Active”. The Activity (HeLa [9]) was “Active”, the Activity (MDA-MB-231 [10]) was “Active” and the Activity (HeLa [11]) was “Active”. The Activity (MES-SA/Dx5) was “Active”.
`Cc1cc(Sc2cnc(OCCN(C)C)cn2)cc(C)c1-c1csc(NC(=O)c2ccncc2)n1` showed an IC50 (MDA-MB-468) of 53.9 nM, an IC50 (K562) of 59.2 nM and an AUC [12] of 13.9 µM·h. The IC50 (HeLa [13]) was 32.8 nM and the IC50 (MDA-MB-231 [14]) was 94.5 nM.
